From patent publication US20060148858A1, “1, 2-Azole derivatives with hypoglycemic and hypolipidemic activity” (priority 2002, published 2006)
Like-named read-outs stand apart in the source and are kept apart here.

Key:
PPARδ-RXRα heterodimer = molecular target: T1, PPARδ-RXRα heterodimer (Homo sapiens, UniProt Q03181); assay: PPARδ-RXRα heterodimer ligand activity, luciferase reporter in COS-1 transformant (Test Example 4); format: cell-based; conditions: COS-1 transformant (hPPARδ, hRXRα, reporter), 36-48 hours, concentration for 50% of the maximum fold induction
T1 construct: expressed in transfected cells; host or cells: COS-1
T1 sequence (Q03181 1-441): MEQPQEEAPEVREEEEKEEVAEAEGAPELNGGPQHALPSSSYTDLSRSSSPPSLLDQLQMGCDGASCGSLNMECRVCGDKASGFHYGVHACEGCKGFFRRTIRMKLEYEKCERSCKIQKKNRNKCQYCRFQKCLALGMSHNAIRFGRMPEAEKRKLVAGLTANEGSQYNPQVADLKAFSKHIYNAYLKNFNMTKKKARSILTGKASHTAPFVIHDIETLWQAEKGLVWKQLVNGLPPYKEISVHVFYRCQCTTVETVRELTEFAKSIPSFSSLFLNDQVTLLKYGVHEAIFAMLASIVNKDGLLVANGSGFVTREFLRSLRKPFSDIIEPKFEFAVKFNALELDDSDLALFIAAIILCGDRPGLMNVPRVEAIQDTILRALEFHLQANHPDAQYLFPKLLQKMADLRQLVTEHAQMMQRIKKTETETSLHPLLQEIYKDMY
T1 sequence (P19793 1-462 partner): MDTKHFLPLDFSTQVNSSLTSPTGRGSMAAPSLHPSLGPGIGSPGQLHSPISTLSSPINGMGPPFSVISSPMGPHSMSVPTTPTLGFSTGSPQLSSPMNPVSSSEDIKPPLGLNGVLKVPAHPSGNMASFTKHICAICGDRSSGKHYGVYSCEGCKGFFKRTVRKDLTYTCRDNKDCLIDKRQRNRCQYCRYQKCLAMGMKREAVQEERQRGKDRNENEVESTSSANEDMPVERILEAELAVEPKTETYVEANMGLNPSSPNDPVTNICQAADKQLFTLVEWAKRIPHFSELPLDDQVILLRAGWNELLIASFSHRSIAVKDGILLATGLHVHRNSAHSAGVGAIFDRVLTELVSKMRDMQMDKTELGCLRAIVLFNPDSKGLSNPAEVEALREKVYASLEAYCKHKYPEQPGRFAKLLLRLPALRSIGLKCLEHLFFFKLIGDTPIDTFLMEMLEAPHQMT
Outline: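 COS-1 cells transiently co-transfected with human PPARδ, human RXRα, PPRE-luciferase reporter and pRL-tk, then exposed to compound 36-48 h at 37 °C in DMEM with 0.1% fatty acid-free BSA. Luciferase read as fold induction over untreated; EC50 at 50% of maximal fold induction.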

KKAY mice = assay: Hypoglycemic and hypolipidemic actions in mice (Test Example 1); format: in vivo; conditions: Mus musculus, po, 96 h, 0.005% in powdery diet, four days, non-treated group taken as 100%
Outline: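 KKAY mice (9 to 12 weeks old, 5 per group) were fed diet containing 0.005% test compound ad libitum for four days. Plasma glucose and triglycerides from orbital venous blood were measured enzymatically, reported as % decrease relative to untreated group (100%).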

[1] = rate of decrease in blood glucose level, read-out: Hypoglycemic action (%)
[2] = rate of decrease in blood triglyceride level, read-out: Hypolipidemic action (%)

EC50 (PPARδ-RXRα heterodimer) [nM]	Compound	inhibition in vivo at 0.005 % in diet (KKAY mice; [1]) [%]	inhibition in vivo at 0.005 % in diet (KKAY mice; [2]) [%]
2.6	CCOc1nn(-c2ccc(C(F)(F)F)cn2)cc1CCCOc1cccc(CC(=O)O)c1 [Example 30, [3-(3-{3-ethoxy-1-[5-(trifluoromethyl)-2-pyridyl]-1H-pyrazol-4-yl}propoxy)phenyl]acetic acid]	35	58
9.6	CCOc1nn(-c2ccc(C(F)(F)F)cn2)cc1CCCOc1ccccc1CC(=O)O [Example 31, (2-(3-{3-ethoxy-1-[5-(trifluoromethyl)-2-pyridyl]-1H-pyrazol-4-yl}propoxy)phenyl]acetic acid]	50	69
0.6	CCOc1nn(-c2ccc(C(F)(F)F)cn2)cc1CCCOc1ccc(CCC(=O)O)c(OC(C)C)c1 [Example 116, 3-[4-(3-{3-ethoxy-1-[5-(trifluoromethyl)-2-pyridinyl]-1H-pyrazol-4-yl}propoxy)-2-isopropoxyphenyl]propanoic acid]		
84	COc1cccc(CC(=O)O)c1OCCCc1cn(-c2ccc(C(F)(F)F)cn2)nc1C(C)C [Example 181, [2-(3-{3-isopropyl-1-[5-(trifluoromethyl)-2-pyridyl]-1H-pyrazol-4-yl}propoxy)-3-methoxyphenyl]acetic acid]	49	49
42	CCC(CC)c1nn(-c2ccc(C(F)(F)F)cn2)cc1CCCOc1c(CC(=O)O)cccc1OC [Example 212, [2-(3-{3-(1-ethylpropyl)-1-[5-(trifluoromethyl)-2-pyridyl]-1H-pyrazol-4-yl}propoxy)-3-methoxyphenyl]acetic acid]	52	55
8.3	CCC(CC)c1nn(-c2ccc(C(F)(F)F)cn2)cc1CCCOc1c(C)cccc1CC(=O)O [Example 213, [2-(3-{3-(1-ethylpropyl)-1-[5-(trifluoromethyl)-2-pyridyl]-1H-pyrazol-4-yl}propoxy)-3-methylphenyl]acetic acid]	51	52
97	CCC(CC)c1nn(-c2ccc(Cl)cn2)cc1CCCOc1c(CC(=O)O)cccc1OC [Example 223, (2-{3-[1-(5-chloro-2-pyridyl)-3-(1-ethylpropyl)-1H-pyrazol-4-yl]propoxy}-3-methoxyphenyl)acetic acid]	38	55
54	CCc1cccc(CC(=O)O)c1OCCCc1cn(-c2ccc(C(F)(F)F)cn2)nc1C(C)C [Example 227, [3-ethyl-2-(3-{3-isopropyl-1-[5-(trifluoromethyl)-2-pyridinyl]-1H-pyrazol-4-yl}propoxy)phenyl]acetic acid]	43	26
6.1	CCCc1nn(-c2ccc(C(F)(F)F)cn2)cc1CCCOc1c(Br)cccc1CC(=O)O [Example 237, [3-bromo-2-(3-{3-propyl-1-[5-(trifluoromethyl)-2-pyridinyl]-1H-pyrazol-4-yl}propoxy)phenyl]acetic acid]		
130	CCc1cccc(CC(=O)O)c1OCCCc1cn(-c2ccc(C(F)(F)F)nn2)nc1C(C)C [Example 245, [3-ethyl-2-(3-{3-isopropyl-1-[6-(trifluoromethyl)pyridazin-3-yl]-1H-pyrazol-4-yl}propoxy)phenyl]acetic acid]	42	55
9.9	Cc1cccc(CC(=O)O)c1OCCCc1cn(-c2ccc(C(F)(F)F)cn2)nc1C1CCCCC1 [Example 316, [2-(3-{3-cyclohexyl-1-[5-(trifluoromethyl)-2-pyridinyl]-1H-pyrazol-4-yl}propoxy)-3-methylphenyl]acetic acid]		
5.1	CCCc1nn(-c2ccc(C(F)(F)F)cn2)cc1CCCOc1c(C)cccc1CC(=O)O [Example 319, [3-methyl-2-(3-{3-propyl-1-[5-(trifluoromethyl)-2-pyridinyl]-1H-pyrazol-4-yl}propoxy)phenyl]acetic acid]		
150	Cc1cccc(CC(=O)O)c1OCCCc1cn(-c2ccc(C(F)(F)F)nn2)nc1C(C)(C)C [Example 367, [2-(3-{3-tert-butyl-1-[6-(trifluoromethyl)pyridazin-3-yl]-1H-pyrazol-4-yl}propoxy)-3-methylphenyl]acetic acid]		

The remaining lines, values behind:

Compound	EC50 (PPARδ-RXRα heterodimer) [nM]	inhibition in vivo at 0.005 % in diet (KKAY mice; [1]) [%]	inhibition in vivo at 0.005 % in diet (KKAY mice; [2]) [%]
CC(C)c1nn(-c2ccc(C(F)(F)F)cn2)cc1CCCOc1cc(CCC(=O)O)n(-c2ccccc2)n1 [Example 24, 3-[3-(3-{3-isopropyl-1-[5-(trifluoromethyl)-2-pyridyl]-1H-pyrazol-4-yl}propoxy)-1-phenyl-1H-pyrazol-5-yl]propionic acid]	9.3		
CCOc1nn(-c2ccc(C(F)(F)F)cn2)cc1CCCOc1cc(CCC(=O)O)n(-c2ccccc2)n1 [Example 42, 3-[3-(3-{3-ethoxy-1-[5-(trifluoromethyl)-2-pyridyl]-1H-pyrazol-4-yl}propoxy)-1-phenyl-1H-pyrazol-5-yl]propionic acid]	1.9	32	19
CCCc1nn(-c2ccc(C(F)(F)F)cn2)cc1CCCOc1cc(CCC(=O)O)n(-c2ccccc2)n1 [Example 43, 3-[1-phenyl-3-(3-{3-propyl-1-[5-(trifluoromethyl)-2-pyridyl]-1H-pyrazol-4-yl}propoxy)-1H-pyrazol-5-yl]propionic acid]	3.7		
CCCc1nn(-c2ccc(C(F)(F)F)cn2)cc1CCCCOc1cc(CCC(=O)O)n(-c2ccccc2)n1 [Example 58, 3-[1-phenyl-3-(4-{3-propyl-1-[5-(trifluoromethyl)-2-pyridinyl]-1H-pyrazol-4-yl}butoxy)-1H-pyrazol-5-yl]propanoic acid]	1.9		
CCCc1nn(-c2ccc(C(F)(F)F)cn2)cc1CCCOc1ccc(CCC(=O)O)c(OCC)c1 [Example 98, 3-[2-ethoxy-4-(3-{3-propyl-1-[5-(trifluoromethyl)-2-pyridinyl]-1H-pyrazol-4-yl}propoxy)phenyl]propanoic acid]	1.2		
CCOc1nn(-c2ccc(C(F)(F)F)cn2)cc1CCCCOc1cc(CCC(=O)O)n(-c2ccccc2)n1 [Example 104, 3-[3-(4-{3-ethoxy-1-[5-(trifluoromethyl)-2-pyridinyl]-1H-pyrazol-4-yl}butoxy)-1-phenyl-1H-pyrazol-5-yl]propanoic acid]	7		
O=C(O)CCc1cc(OCCCc2cn(-c3ccc(C(F)(F)F)cn3)nc2-c2ccccc2)nn1-c1ccccc1 [Example 125, 3-[1-phenyl-3-(3-{3-phenyl-1-[5-(trifluoromethyl)-2-pyridyl]-1H-pyrazol-4-yl}propoxy)-1H-pyrazol-5-yl]propionic acid]	1.5		
CCOc1nn(-c2ccc(C(F)(F)F)cn2)cc1CCCCOc1ccccc1CC(=O)O [Example 137, [2-(4-{3-ethoxy-1-[5-(trifluoromethyl)-2-pyridyl]-1H-pyrazol-4-yl}butoxy)phenyl]acetic acid]	9.6		
O=C(O)CCc1cc(OCCCc2cn(-c3ccc(C(F)(F)F)cn3)nc2C2CCCCC2)nn1-c1ccccc1 [Example 189, 3-[3-(3-{3-cyclohexyl-1-[5-(trifluoromethyl)-2-pyridyl]-1H-pyrazol-4-yl}propoxy)-1-phenyl-1H-pyrazol-5-yl]propionic acid]	2.1	50	38
CCOc1ccc(CC(=O)O)cc1OCCCc1cn(-c2ccc(C(F)(F)F)cn2)nc1C1CCCCC1 [Example 201, [3-(3-{3-cyclohexyl-1-[5-(trifluoromethyl)-2-pyridyl]-1H-pyrazol-4-yl}propoxy)-4-ethoxyphenyl]acetic acid]	1.2		
COc1ccc(CC(=O)O)cc1OCCCc1cn(-c2ccc(C(F)(F)F)cn2)nc1C1CCCCC1 [Example 304, [3-(3-{3-cyclohexyl-1-[5-(trifluoromethyl)-2-pyridinyl]-1H-pyrazol-4-yl}propoxy)-4-methoxyphenyl]acetic acid]	5.7		
